US20240269298A1, “PHOSPHONYL DERIVATIVE, AND COMPOSITION AND PHARMACEUTICAL APPLICATION THEREOF” (XIZANG HAISCO PHARMACEUTICAL CO., LTD., priority 2021, published 2024)
Read-outs that look alike come from different tables or passages of the source.

Experiments:
[1] = test system: NCI-H1975 (EGFR-L858R-T790M) cells; assay: Inhibitory activity on proliferation of NCI-H1975 (EGFR-L858R-T790M) cells (CTG, 72 h); format: cell-based; details: Homo sapiens
In short: (§1)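 IC50 values come from S-shaped dose-survival fits of CTG signal expressed as % of vehicle. Compound exposure lasted 72 h at 37 °C with 0.1% DMSO; seeding was 3000 A431 cells/well in DMEM+10% FBS and 1000 NCI-H1975 cells/well in RPMI1640+10% FBS.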

[2] = Pharmacokinetic test in mice; format: in vivo; details: male, ICR, mouse, po, administration i.g. (10 mg/kg), plasma
Experimental: Test objective: In this experiment, a single dose of test compounds was administered to ICR mice intravenously and intragastrically, the concentrations of the test compounds in plasma of mice were measured, and the pharmacokinetic characteristics and bioavailability of the test compounds in mice were evaluated.
Experimental animals: male ICR mice, 20-25 g, purchased from BEIJING HFK BIOSCIENCE CO., LTD. with the laboratory animal production license number of SCXK (JING) 2019-0008; or purchased from CHENGDU DDOSSY EXPERIMENTAL ANIMALS CO., LTD. (SCXK (CHUAN) 2020-030); or purchased from HUNAN SJA LABORATORY ANIMAL CO., LTD. (SCXK (XIANG) 2019-0004).
Experimental method: on the day of the experiment, ICR mice were randomly grouped according to their body weights. The mice were fasted with water available for 12 to 14 hours one day before the administration, and were fed 4 hours after the administration.
Sampling: before and after the administration, blood was taken from the orbits of the mice under isoflurane anesthesia, and placed in an EDTAK2 centrifuge tube. Centrifugation was carried out at 5000 rpm at 4° C. for 10 min, and the plasma was collected.
Time points for plasma collection in G1&G2 groups: 0, 5 min, 15 min, 30 min, 1h, 2h, 4h, 6h, 8h, and 24 h; • time points for plasma collection in G3 group: 0, 5 min, 15 min, 30 min, 1 h, 2 h, 4 h, 6h, 8h, and 24 h; • before analysis and detection, all samples were stored at −80° C. The samples were analyzed quantitatively by LC-MS/MS.

A431 (EGFR-WT) cells = assay: Inhibitory activity on proliferation of A431 (EGFR-WT) cells (CTG, 72 h); format: cell-based; details: Homo sapiens, A-431
In short: as §1

[3] = read-out: IC50 (value in brackets)

Row | IC50 ([1]; read-out: IC50 (class symbol)) [nM] | IC50 [1, 3] [nM] | AUC(0-t) [2] [ng·h/mL] | AUC [2] [ng·h/mL] | half-life [2] [h] | IC50 (A431 (EGFR-WT) cells) [nM] | SMILES
1 | 100 to 500 | 110 |  |  |  | ≥ 10000 | COc1cc(N2CCC(C(=O)N3CCN(c4ccc5c(c4)C(=O)N(C4CCC(=O)NC4=O)C5=O)CC3)CC2)c(-c2cnn(C)c2)cc1Nc1ncc(Cl)c(Nc2ccc(C3CC3)cc2P(C)(C)=O)n1 (stereo not shown) [Compound 143, 5-(4-(1-(4-((5-chloro-4-((4-cyclopropyl-2-(dimethylphosphoryl)phenyl)amino)pyrimidin-2-yl)amino)-5-methoxy-2-(1-methyl-1H-pyrazol-4-yl)phenyl)piperidine-4-carbonyl)piperazin-1-yl)-2-(2,6-dioxopiperidin-3-yl)isoindoline-1,3-dione]
2 | < 100 | 49 |  |  |  | ≥ 10000 | COc1cc(N2CCC(CN3CCN(c4ccc5c(c4)C(=O)N([C@H]4CCC(=O)NC4=O)C5=O)CC3)CC2)c(-c2cnn(C)c2)cc1Nc1ncc(Cl)c(Nc2ccc(C3CC3)cc2P(C)(C)=O)n1 [Compound 172]
3 | < 100 | 69 |  |  |  | ≥ 10000 | COc1cc(N2CCC(C(=O)N3CCN(c4ccc5c(c4)C(=O)N(C4CCC(=O)NC4=O)C5=O)CC3)CC2)c(-c2cnn(C)c2)cc1Nc1ncc(Br)c(Nc2ccc(C3CC3)cc2P(C)(C)=O)n1 (stereo not shown) [Compound 145, 5-(4-(1-(4-((5-bromo-4-((4-cyclopropyl-2-(dimethylphosphoryl)phenyl)amino)pyrimidin-2-yl)amino)-5-methoxy-2-(1-methyl-1H-pyrazol-4-yl)phenyl)piperidine-4-carbonyl)piperazin-1-yl)-2-(2,6-dioxopiperidin-3-yl)isoindoline-1,3-dione]
4 | 100 to 500 | 134 |  |  |  | ≥ 10000 | COc1cc(N2CCC3(CCN(c4ccc5c(c4)C(=O)N(C4CCC(=O)NC4=O)C5=O)CC3)CC2)c(-c2cnn(C)c2)cc1Nc1ncc(Cl)c(Nc2ccc(F)cc2P(C)(C)=O)n1 (stereo not shown) [Compound 162, 5-(9-(4-((5-chloro-4-((2-(dimethylphosphoryl)-4-fluorophenyl)amino)pyrimidin-2-yl)amino)-5-methoxy-2-(1-methyl-1H-pyrazol-4-yl)phenyl)-3,9-diazaspiro[5.5]undecan-3-yl)-2-(2,6-dioxopiperidin-3-yl)isoindoline-1,3-dione]

Second part, the compound before the results:

Row | SMILES | IC50 ([1]; read-out: IC50 (class symbol)) [nM] | IC50 [1, 3] [nM] | AUC(0-t) [2] [ng·h/mL] | AUC [2] [ng·h/mL] | half-life [2] [h] | IC50 (A431 (EGFR-WT) cells) [nM]
5 | COc1cc(N2CCC3(CCN(CC4CCN(c5cc6c(cc5F)C(=O)N(C5CCC(=O)NC5=O)C6=O)CC4)CC3)CC2)c(-c2cnn(C)c2)cc1Nc1ncc(Br)c(Nc2ccc(-c3ccccc3)cc2P(C)(C)=O)n1 (stereo not shown) [Compound 39, 5-(4-((9-(4-((5-bromo-4-((3-(dimethylphosphoryl)-[1,1′-biphenyl]-4-yl)amino)pyrimidin-2-yl)amino)-5-methoxy-2-(1-methyl-1H-pyrazol-4-yl)phenyl)-3,9-diazaspiro[5.5]undecan-3-yl)methyl)piperidin-1-yl)-2-(2,6-dioxopiperidin-3-yl)-6-fluoroisoindoline-1,3-dione] | < 100 | 51 | 6000 |  |  | 
6 | COc1cc(N2CCC(CN3CCN(c4ccc5c(c4)C(=O)N(C4CCC(=O)NC4=O)C5=O)CC3)CC2)c(-c2cnn(C)c2)cc1Nc1ncc(Br)c(Nc2ccc(F)cc2P(C)(C)=O)n1 (stereo not shown) [Compound 141, 5-(4-((1-(4-((5-bromo-4-((2-(dimethylphosphoryl)-4-fluorophenyl)amino)pyrimidin-2-yl)amino)-5-methoxy-2-(1-methyl-1H-pyrazol-4-yl)phenyl)piperidin-4-yl)methyl)piperazin-1-yl)-2-(2,6-dioxopiperidin-3-yl)isoindoline-1,3-dione] | < 100 | 27 |  | 86600 | 5.91 | 
7 | COc1cc(N2CCN(C3CCN(CC4CCN(c5ccc6c(c5)C(=O)N(C5CCC(=O)NC5=O)C6=O)CC4)CC3)CC2)c(-c2cnn(C)c2)cc1Nc1ncc(Br)c(Nc2ccc(-c3ccccc3)cc2P(C)(C)=O)n1 (stereo not shown) [Compound 42, 5-(4-((4-(4-(4-((5-bromo-4-((3-(dimethylphosphoryl)-[1,1′-biphenyl]-4-yl)amino)pyrimidin-2-yl)amino)-5-methoxy-2-(1-methyl-1H-pyrazol-4-yl)phenyl)piperazin-1-yl)piperidin-1-yl)methyl)piperidin-1-yl)-2-(2,6-dioxopiperidin-3-yl)isoindoline-1,3-dione] | < 100 | 59 |  |  |  | ≥ 10000
8 | COc1cc(N2CCC3(CCN(c4ccc5c(c4)C(=O)N(C4CCC(=O)NC4=O)C5=O)CC3)CC2)c(-c2cnn(C)c2)cc1Nc1ncc(Br)c(Nc2ccc(-c3ccccc3)cc2P(C)(C)=O)n1 (stereo not shown) [Compound 79, 5-(9-(4-((5-bromo-4-((3-(dimethylphosphoryl)-[1,1′-biphenyl]-4-yl)amino)pyrimidin-2-yl)amino)-5-methoxy-2-(1-methyl-1H-pyrazol-4-yl)phenyl)-3,9-diazaspiro[5.5]undecan-3-yl)-2-(2,6-dioxopiperidin-3-yl)isoindoline-1,3-dione] | 100 to 500 | 314 |  |  |  | ≥ 10000
9 | COc1cc(N2CCN(C[C@H]3CCN(c4ccc5c(c4)C(=O)N(C4CCC(=O)NC4=O)C5=O)C3)CC2)c(-c2cnn(C)c2)cc1Nc1ncc(Cl)c(Nc2ccc(-c3ccccc3)cc2P(C)(C)=O)n1 (stereo partly drawn) [Compound 118, 5-((R)-3-((4-(4-((5-chloro-4-((3-(dimethylphosphoryl)-[1,1′-biphenyl]-4-yl)amino)pyrimidin-2-yl)amino)-5-methoxy-2-(1-methyl-1H-pyrazol-4-yl)phenyl)piperazin-1-yl)methyl)pyrrolidin-1-yl)-2-(2,6-dioxopiperidin-3-yl)isoindoline-1,3-dione] | < 100 | 40 |  |  |  | ≥ 10000
10 | COc1cc(N2CCN(CC3CCN(c4ccc5c(c4)C(=O)N(C4CCC(=O)NC4=O)C5=O)CC3)CC2)c(-c2cnn(C)c2)cc1Nc1ncc(Cl)c(Nc2ccc(C3CC3)cc2P(C)(C)=O)n1 (stereo not shown) [Compound 126, 5-(4-((4-(4-((5-chloro-4-((4-cyclopropyl-2-(dimethylphosphoryl)phenyl)amino)pyrimidin-2-yl)amino)-5-methoxy-2-(1-methyl-1H-pyrazol-4-yl)phenyl)piperazin-1-yl)methyl)piperidin-1-yl)-2-(2,6-dioxopiperidin-3-yl)isoindoline-1,3-dione] | < 100 | 39 |  |  |  | ≥ 10000
11 | COc1cc(N2CCC(N3CCC(CN4CCN(c5ccc6c(c5)C(=O)N(C5CCC(=O)NC5=O)C6=O)CC4)CC3)CC2)c(C2CC2)cc1Nc1ncc(Br)c(Nc2ccc3nccnc3c2P(C)(C)=O)n1 (stereo not shown) [Compound 24, 5-(4-((1′-(4-((5-bromo-4-((5-(dimethylphosphoryl)quinoxalin-6-yl)amino)pyrimidin-2-yl)amino)-2-cyclopropyl-5-methoxyphenyl)-[1,4′-bipiperidin]-4-yl)methyl)piperazin-1-yl)-2-(2,6-dioxopiperidin-3-yl)isoindoline-1,3-dione] | 100 to 500 | 163 |  |  |  | ≥ 10000
12 | COc1cc(N2CCN(C3CCN(CC4CCN(c5cc6c(cc5F)C(=O)N(C5CCC(=O)NC5=O)C6=O)CC4)CC3)CC2)c(-c2cnn(C)c2)cc1Nc1ncc(Cl)c(Nc2ccc(-c3ccccc3)cc2P(C)(C)=O)n1 (stereo not shown) [Compound 50, 5-(4-((4-(4-(4-((5-chloro-4-((3-(dimethylphosphoryl)-[1,1′-biphenyl]-4-yl)amino)pyrimidin-2-yl)amino)-5-methoxy-2-(1-methyl-1H-pyrazol-4-yl)phenyl)piperazin-1-yl)piperidin-1-yl)methyl)piperidin-1-yl)-2-(2,6-dioxopiperidin-3-yl)-6-fluoroisoindoline-1,3-dione] | 100 to 500 | 133 |  |  |  | ≥ 10000
13 | COc1cc(N2CCC3(CC2)CC(N2CCN(c4ccc5c(c4)C(=O)N(C4CCC(=O)NC4=O)C5=O)CC2)C3)c(-c2cnn(C)c2)cc1Nc1ncc(Br)c(Nc2ccc(-c3ccccc3)cc2P(C)(C)=O)n1 (stereo not shown) [Compound 83, 5-(4-(7-(4-((5-bromo-4-((3-(dimethylphosphoryl)-[1,1′-biphenyl]-4-yl)amino)pyrimidin-2-yl)amino)-5-methoxy-2-(1-methyl-1H-pyrazol-4-yl)phenyl)-7-azaspiro[3.5]nonan-2-yl)piperazin-1-yl)-2-(2,6-dioxopiperidin-3-yl)isoindoline-1,3-dione] | 100 to 500 | 126 |  |  |  | ≥ 10000
14 | COc1cc(N2CCC(C3CCN(CC4CCN(c5ccc6c(c5)C(=O)N(C5CCC(=O)NC5=O)C6=O)CC4)CC3)CC2)c(-c2cnn(C)c2)cc1Nc1ncc(Cl)c(Nc2ccc(-c3ccccc3)cc2P(C)(C)=O)n1 (stereo not shown) [Compound 41, 5-(4-((1′-(4-((5-chloro-4-((3-(dimethylphosphoryl)-[1,1′-biphenyl]-4-yl)amino)pyrimidin-2-yl)amino)-5-methoxy-2-(1-methyl-1H-pyrazol-4-yl)phenyl)-[4,4′-bipiperidin]-1-yl)methyl)piperidin-1-yl)-2-(2,6-dioxopiperidin-3-yl)isoindoline-1,3-dione] | 100 to 500 | 353 |  |  |  | ≥ 10000
